Earlier results, collected in patent US6663884B2, “Method of detoxifying the egg of puffer fish for creating healthy foodstuffs and the resulting product” (priority 2002, dated 2003).

SMILES: NC1=N[C@H](O)[C@H]2[C@H]3O[C@]4(O)O[C@@H]([C@@H](O)[C@@]2(N1)[C@@H]4O)[C@]3(O)CO [tetrodotoxin]
- solubility in water: soluble in water
